Assay [1] deals with T1, Solute carrier family 15 member 1 (Homo sapiens) (UniProt P46059).
T1 sequence (whole entry): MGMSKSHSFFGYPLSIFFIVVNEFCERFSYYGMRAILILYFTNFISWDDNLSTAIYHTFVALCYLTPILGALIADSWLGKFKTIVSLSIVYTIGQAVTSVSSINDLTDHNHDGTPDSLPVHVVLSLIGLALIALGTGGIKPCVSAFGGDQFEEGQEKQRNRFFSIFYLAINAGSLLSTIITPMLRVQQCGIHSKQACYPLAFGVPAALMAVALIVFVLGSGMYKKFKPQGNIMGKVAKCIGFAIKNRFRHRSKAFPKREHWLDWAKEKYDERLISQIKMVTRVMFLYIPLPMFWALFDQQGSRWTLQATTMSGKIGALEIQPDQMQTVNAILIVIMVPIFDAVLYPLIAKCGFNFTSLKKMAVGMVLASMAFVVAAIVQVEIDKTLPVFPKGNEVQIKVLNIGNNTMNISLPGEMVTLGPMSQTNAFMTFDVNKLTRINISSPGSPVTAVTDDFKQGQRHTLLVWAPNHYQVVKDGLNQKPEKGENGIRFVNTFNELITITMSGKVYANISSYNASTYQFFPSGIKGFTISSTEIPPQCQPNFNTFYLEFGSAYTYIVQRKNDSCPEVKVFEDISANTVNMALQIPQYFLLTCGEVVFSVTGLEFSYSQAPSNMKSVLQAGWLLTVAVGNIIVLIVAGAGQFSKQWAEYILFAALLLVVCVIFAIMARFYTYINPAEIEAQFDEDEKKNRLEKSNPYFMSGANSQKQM
In words: TP_TRANSPORTER: uptake in Xenopus laevis oocytes. It is filed as functional, cell-based. The settings on record: Oocyte.

Assay [2] has as its target T1, Solute carrier family 15 member 1 (Homo sapiens). The experiment in a line: TP_TRANSPORTER: inhibition of Gly-Sar uptake (Gly-Sar: 20 uM, L-dopa-L-Phe: 1000 uM) in Caco-2 cells. It is filed as functional, cell-based.

The structures appear in SMILES notation. Non-standard residues stand in square brackets, D forms with d. Residues, ends and D or L forms follow the SMILES beside them. Dopa = N[C@@H](Cc1ccc(O)c(O)c1)C(=O)O

`N[C@@H](Cc1ccccc1)C(=O)N1CCC[C@@H]1C(=O)O`: in assay [1], the Activity entry was “substrate [+]”. For the compound `N[C@@H](Cc1ccccc1)C(=O)N1CCC[C@H]1C(=O)O`, the Activity result in assay [1] was “substrate [+]”. In the case of `NC(=O)[C@H](Cc1ccccc1)NC(=O)[C@@H](N)Cc1ccccc1` (H-Phe-Phe-NH2), in assay [1], the Activity result is “substrate [+]”. For the compound `N[C@@H](Cc1ccc(O)c(O)c1)C(=O)N[C@@H](Cc1ccccc1)C(=O)O` (H-[Dopa]-Phe-OH), the Activity result is “inhibitor [20% (at a rough estimate) of control]” in assay [2] and “substrate [+]” in assay [1].

The values are drawn from ChEMBL document CHEMBL2074382, “Improvement of L-dopa absorption by dipeptidyl derivation, utilizing peptide transporter PepT1” (J Pharm Sci, 1998).
